Data taken from patent publication US11352350B2, “IRAK degraders and uses thereof” (Kymera Therapeutics, Inc., priority 2018, dated 2022).

Key:
[1] = tested on: BALB/c mice; assay: MSU crystal-induced inflammatory cell infiltration into six-day air pouch (gout model); assay type: in vivo, mouse; conditions: orally dosed; FIG. 15
Description: Animals: BALB/c mice, male, 5-6 weeks, weighing approximately 19-23 g were used. Animals were housed and maintained according to IACUC protocols.
Air Pouch: Each mouse was anesthetized and injected with 6 mL of sterile air subcutaneously (SC) at the nape of the neck and the injection site was sealed with flexible colloidon to create an air pouch. Three days later, the mice were injected with 3 mL of sterile air SC at the same site and the injection site was sealed with flexible colloidon.
Preparation of MSU Crystals: 10 g uric acid (Sigma, Cat. U2625, lot BCBM5312V) was heated to 60° C. in 2 L purified water, containing 5.8 mL 10 N NaOH. The pH of the heated mixture was adjusted to 8.9, yielding a clear solution which was stored overnight at 4-8° C. to allow MSU crystals to form and precipitate. The MSU crystals were washed three times with 1 L purified water and stored at 37° C. to dry.
Formulation of Degrader: 0.5% CMC/0.25% Tween-80 was prepared by dissolving 0.5 g carboxymethylcellulose (Sigma, Cat. C4888, lot 101K0185) in 100 mL de-ionized water followed by the addition of 0.25 mL Tween-80 (Sigma, Cat. P1754, lot 073K0064). […]
Termination, Cell Collection and Data: Four hours after MSU/saline injection, the mice were anesthetized and humanely exsanguinated. […] The air pouch was gently massaged, the contents immediately removed, and the exudate volume recorded. […]

[2] = tested on: OCI-LY10 cells; assay: OCI-LY10 flow staining (Ki67, active Caspase-3, IRAK4); assay type: cell-based, human; conditions: FIG. 4
Description: OC1-LY10 cell line was cultured in IMDM medium supplemented with 20% FBS, B-ME and pen/strep. On Day 1, cells were plated at 200K per well in 96 well plates. Compounds were diluted to 1000× in DMSO, then further diluted to 100× in media, and added to cells at 4 concentrations over 4 different timepoints (24h, 48h, 72h and 96h). Timepoints were staggered so all cells were harvested and stained at the same time. Paclitaxel was added as a positive control and a DMSO control for each timepoint was also included. On day 5, plates were harvested and cells were fixed, permeabilized, and stored at −4 C until further processing. On day 8, the Ki67 plates were stained using KI-67-APC antibody (Biolegend, Cat #350514). The Caspase 3 plates were stained using the PE Active Caspase-3 Apoptosis Kit (BD Biosciences, Cat #550914) and the IRAK 4 plates were stained with Hu IRAK4 A^b Alexa 647 Clone: L29-525 antibody (BD, Cat #560315). Cells were resuspended in staining buffer and run on a Beckman Coulter CytoFlex 13 color Cytometer (Model #A00-1-1102, Serial #AS10086).

[3] = tested on: cytokines induced by TLR stimuli; assay: Human whole blood cytokine release assays; assay type: cell-based; conditions: compared with IRAK4 inhibition with PF-06550833, FIG. 16
Description: Fresh human whole blood was collected in Na Heparin tubes and received from […] same day as collection. 200 uL of whole blood was aliquoted per well into a 96 well plate. Whole blood was pre-incubated with compounds overnight at 37° C., 5% CO2. Following compound incubation, samples were stimulated with […] (invivogen #tlrl-r848), LPS 10 ng/mL (Sigma #L2637) or IL-1β 25 ng/mL (R&D systems 201-LB) and incubated for an additional 5 hours. At the end of the assay, blood was spun down for 15 min at 4° C. and plasma was collected and immediately stored at −80° C. Cytokine and chemokine levels were measured by custom ordered U-plex MSD panels (panel 1: IFNy, IL-10, IL-1β, IL-6, IL-8, TNFα) and (panel 2: IP-10, MIP1-α, MIP-1β, IL-12/IL-23p40, GROα).

SMILES | IL-1β in plasma [1] | induction of apoptosis in OCI-LY10 lymphoma line [2] | range of cytokines inhibited, induced by different TLR stimuli [3]
CN(CCCOCCCc1cccc2c1n(C)c(=O)n2C1CCC(=O)NC1=O)C[C@H]1CC[C@H](n2cc(NC(=O)c3coc(-c4ccnc(NCC5CC5)c4)n3)c(C(F)F)n2)CC1 (mixture of isomers) [I-30, 2-[2-(Cyclopropylmethylamino)-4-pyridyl]-N-[3-(difluoromethyl)-1-[4-[[3-[3-[1-(2,6-dioxo-3-piperidyl)-3-methyl-2-oxo-benzimidazol-4-yl]propoxy]propyl-methyl-amino]methyl]cyclohexyl]pyrazol-4-yl] oxazole-4-carboxamide] | dose-dependent decrease in IL-1β | induces apoptosis | –
CN(C[C@H]1CC[C@H](n2cc(NC(=O)c3coc(-c4ccnc(NCC5CC5)c4)n3)c(C(F)F)n2)CC1)C1CCN(Cc2cccc3c2n(C)c(=O)n3C2CCC(=O)NC2=O)CC1 (stereo partly drawn) [I-75, 2-(2-((cyclopropylmethyl)amino)pyridin-4-yl)-N-(3-(difluoromethyl)-1-((1r,4r)-4-(((1-((1-(2,6-dioxopiperidin-3-yl)-3-methyl-2-oxo-2,3-dihydro-1H-benzo[d]imidazol-4-yl)methyl)piperidin-4-yl)(methyl)amino)methyl)cyclohexyl)-1H-pyrazol-4-yl)oxazole-4-carboxamide] | – | – | inhibits a broader range of cytokines
